Assay results reported in the NIST ThermoML archive (doi:10.1016/j.tca.2014.05.022).
Values joined by “and” are separate entries in the source; they are usually repeats but may differ in a detail not shown here. Identical values can stand only once. ± gives the expanded uncertainty stated by the source.

Conditions: DTA; for Normal melting temperature: Crystal

| SMILES | Triple point temperature (Crystal 1) | Triple point temperature (Crystal 2) | Normal melting temperature | Triple point temperature (Crystal 3) |
| --- | --- | --- | --- | --- |
| CCCCCCCCCCCCCCO [1-tetradecanol] | 311.2 ± 0.9 K and 311.4 ± 0.9 K | 310.2 ± 0.9 K and 310.4 ± 0.9 K | 38.2 ± 0.5 °C |  |
| CCCCCCCCCCCCO [dodecan-1-ol] | 297.8 ± 0.9 K and 297.4 ± 0.9 K | 296.4 ± 0.9 K | 24.7 ± 0.5 °C and 24.2 ± 0.5 °C |  |
| CCCCCCCCCCO [decan-1-ol] | 280.6 ± 0.9 K and 280.8 ± 0.9 K | 280.2 ± 0.9 K and 279.9 ± 0.9 K | 7.5 ± 0.5 °C | 276.2 ± 0.9 K and 277.5 ± 0.9 K |
| CCCCCCCCO [octan-1-ol] | 258.7 ± 0.9 K and 258.3 ± 0.9 K | 255 ± 0.5 K and 256 ± 0.9 K | -14.4 ± 0.5 °C |  |
| CCCCCCCCCCCCCCCCO [1-hexadecanol] | 323.3 ± 0.87 K and 323 ± 0.9 K | 322.3 ± 0.9 K and 322.2 ± 0.9 K | 50 ± 0.5 °C |  |
| CCCCCCCCCCCCCCCCCCO [1-octadecanol] | 331.6 ± 0.9 K | 331 ± 0.9 K and 330.6 ± 0.9 K | 58.5 ± 0.5 °C |  |
